Converted amounts (≈) assume the structure as drawn. The source made the active and inactive calls. The rule behind the calls is not given here.
How the values were obtained:
Mus musculus [1] = assay: Central serotoninmimetic activity in CF mouse assessed as induction of head twitches at 6 mg/kg, ip after 60 mins; format: functional, organism-based; set-up: dose 6 mg/kg
[2] = Peripheral serotoninmimetic activity in Charles River rat uterus assessed as uterine contraction measured as tension developed at 0.01 ug/ml in presence of methylsergide; format: ADME, tissue-based
[3] = Peripheral serotoninmimetic activity in Charles River rat uterus assessed as uterine contraction measured as tension developed at 0.01 ug/ml in presence of hydroxindasol; format: ADME, tissue-based
[4] = Peripheral serotoninmimetic activity in Charles River rat uterus assessed as uterine contraction measured as tension developed at 0.00075 ug/ml relative to methacholine; format: ADME, tissue-based
[5] = Peripheral serotoninmimetic activity in Charles River rat uterus assessed as uterine contraction measured as tension developed at 0.00050 ug/ml relative to methacholine; format: ADME, tissue-based
[6] = Peripheral serotoninmimetic activity in Charles River rat uterus assessed as uterine contraction measured as tension developed at 0.00075 ug/ml; format: ADME, tissue-based
[7] = Peripheral serotoninmimetic activity in Charles River rat uterus assessed as uterine contraction measured as tension developed at 0.005 ug/ml relative to methacholine; format: ADME, tissue-based
[8] = Peripheral serotoninmimetic activity in Charles River rat uterus assessed as uterine contraction measured as tension developed at 0.005 ug/ml; format: ADME, tissue-based
[9] = Peripheral serotoninmimetic activity in Charles River rat uterus assessed as uterine contraction measured as tension developed at 0.05 ug/ml; format: ADME, tissue-based
[10] = Peripheral serotoninmimetic activity in Charles River rat uterus assessed as uterine contraction measured as tension developed at 0.1 ug/ml; format: ADME, tissue-based
[11] = Peripheral serotoninmimetic activity in Charles River rat uterus assessed as uterine contraction measured as tension developed at 0.00050 ug/ml; format: ADME, tissue-based
[12] = Peripheral serotoninmimetic activity in Charles River rat uterus assessed as uterine contraction; format: ADME, tissue-based
[13] = Peripheral serotoninmimetic activity in Charles River rat uterus assessed as uterine contraction measured as tension developed at 0.01 ug/ml relative to methacholine; format: ADME, tissue-based
[14] = Peripheral serotoninmimetic activity in Charles River rat uterus assessed as uterine contraction measured as tension developed at 0.001 ug/ml relative to methacholine; format: ADME, tissue-based
[15] = Peripheral serotoninmimetic activity in Charles River rat uterus assessed as uterine contraction measured as tension developed at 0.001 ug/ml; format: ADME, tissue-based
[16] = Peripheral serotoninmimetic activity in Charles River rat uterus assessed as uterine contraction measured as tension developed at 0.01 ug/ml; format: ADME, tissue-based
[17] = Peripheral serotoninmimetic activity in Charles River rat uterus assessed as uterine contraction measured as tension developed at 1 ug/ml; format: ADME, tissue-based
Mus musculus [18] = assay: Central serotoninmimetic activity in CF mouse assessed as induction of head twitches at 30 mg/kg, ip after 60 mins; format: functional, organism-based; set-up: dose 30 mg/kg
[19] = Peripheral serotoninmimetic activity in Charles River rat uterus assessed as uterine contraction measured as tension developed at 10 ug/ml; format: ADME, tissue-based
[20] = Peripheral serotoninmimetic activity in Charles River rat uterus assessed as uterine contraction measured as tension developed at 10 ug/ml in presence of hydroxindasol; format: ADME, tissue-based
[21] = Peripheral serotoninmimetic activity in Charles River rat uterus assessed as uterine contraction measured as tension developed at 10 ug/ml in presence of methylsergide; format: ADME, tissue-based
Mus musculus [22] = assay: Central serotoninmimetic activity in CF mouse assessed as induction of head twitches at 10 mg/kg, ip after 30 to 60 mins in presence of cyproheptadine; format: functional, organism-based; set-up: dose 10 mg/kg
[23] = Peripheral serotoninmimetic activity in Charles River rat uterus assessed as uterine contraction measured as tension developed at 5 ug/ml; format: ADME, tissue-based
[24] = Peripheral serotoninmimetic activity in Charles River rat uterus assessed as uterine contraction measured as tension developed at 1 ug/ml relative to methacholine; format: ADME, tissue-based
[25] = Peripheral serotoninmimetic activity in Charles River rat uterus assessed as uterine contraction measured as tension developed at 5 ug/ml relative to methacholine; format: ADME, tissue-based
[26] = Peripheral serotoninmimetic activity in Charles River rat uterus assessed as uterine contraction measured as tension developed at 0.5 ug/ml; format: ADME, tissue-based
Mus musculus [27] = assay: Central serotoninmimetic activity in CF mouse assessed as induction of head twitches at 10 mg/kg, ip after 30 mins in presence of xylamidine; format: functional, organism-based; set-up: dose 10 mg/kg
[28] = Peripheral serotoninmimetic activity in Charles River rat uterus assessed as uterine contraction measured as tension developed at 10 ug/ml relative to methacholine; format: ADME, tissue-based
[29] = Peripheral serotoninmimetic activity in Charles River rat uterus assessed as uterine contraction measured as tension developed at 0.5 ug/ml relative to methacholine; format: ADME, tissue-based
Mus musculus [30] = assay: Central serotoninmimetic activity in CF mouse assessed as induction of head twitches at 60 mg/kg, ip after 30 mins in presence of xylamidine; format: functional, organism-based; set-up: dose 60 mg/kg
[31] = Ratio of serotonin EC50 to compound EC50 for peripheral serotoninmimetic activity in Charles River rat uterus; format: ADME, tissue-based
[32] = Peripheral serotoninmimetic activity in Charles River rat uterus assessed as uterine contraction measured as tension developed at 20 ug/ml; format: ADME, tissue-based
Mus musculus [33] = assay: Central serotoninmimetic activity in CF mouse assessed as induction of head twitches at 10 mg/kg, ip after 30 to 60 mins in presence of methergoline; format: functional, organism-based; set-up: dose 10 mg/kg

SMILES: Clc1cnc(N2CCNCC2)cn1
- Activity (Mus musculus [1]): inactive

SMILES: NCCc1c[nH]c2ccc(O)cc12 [SEROTONIN]
- Activity [2]: Non-toxic
- Activity [3]: Non-toxic
- Emax [4]: 37%
- Emax [5]: 7%
- Activity [6]: 1.23 g
- Emax [7]: 80%
- Activity [8]: 2.67 g
- Activity [9]: 3.18 g
- Activity [10]: 3.2 g
- Activity [11]: 0.22 g
- EC50 [12]: 0.0083 µg/mL (≈ 0.0471 µM)
- Emax [13]: 92%
- Emax [14]: 70%
- Activity [15]: 2.32 g
- Activity [16]: 3.08 g

SMILES: c1cnc(N2CCNCC2)cn1
- Activity (Mus musculus [1]): inactive

SMILES: Clc1cncc(N2CCN(c3cncc(Cl)n3)CC2)n1
- Activity (Mus musculus [1]): inactive

SMILES: CC(=O)OC(C)C[N+](C)(C)C (stereo unspecified) [METHACHOLINE]
- Activity [17]: 2.65 g

SMILES: Cc1cncc(N2CCNCC2)n1
- Activity (Mus musculus [18]): Active
- Activity (Mus musculus [1]): Active

SMILES: c1ccc(-c2cncc(N3CCNCC3)n2)cc1
- Activity (Mus musculus [18]): inactive

SMILES: CN(C)c1cncc(N2CCNCC2)n1
- Activity (Mus musculus [18]): inactive
- Activity (Mus musculus [1]): inactive

SMILES: O=C1CN(c2cncc(Cl)n2)CCN1
- Activity (Mus musculus [18]): inactive
- Activity (Mus musculus [1]): inactive

SMILES: c1ccc2nc(N3CCNCC3)ccc2c1
- Activity (Mus musculus [18]): inactive
- Activity (Mus musculus [1]): inactive

SMILES: CN(C)CCCN1CCN(c2cncc(Cl)n2)CC1
- Activity (Mus musculus [18]): inactive
- Activity (Mus musculus [1]): inactive

SMILES: Clc1nccnc1N1CCNCC1
- Activity (Mus musculus [18]): inactive
- Activity (Mus musculus [1]): inactive

SMILES: Cc1nccnc1N1CCNCC1
- Activity (Mus musculus [18]): inactive
- Activity (Mus musculus [1]): inactive

SMILES: CS(=O)(=O)c1cncc(N2CCNCC2)n1
- Activity (Mus musculus [1]): inactive

SMILES: COC(=O)c1nc(Cl)c(N2CCNCC2)nc1N
- Activity (Mus musculus [18]): inactive

SMILES: c1ccc(-c2cnc(N3CCNCC3)cn2)cc1
- Activity (Mus musculus [18]): inactive
- Activity (Mus musculus [1]): inactive

SMILES: Cc1cnc(C)c(N2CCNCC2)n1
- Activity (Mus musculus [1]): inactive

SMILES: Cl.Clc1cncc(N2CCNCC2)n1
- Activity [19]: 2.28 g
- Activity [20]: Non-toxic
- Activity [21]: Non-toxic
- Activity (Mus musculus [22]): inactive
- Activity [17]: 0.4 g
- Activity (Mus musculus [18]): Active
- Activity [23]: 2.12 g
- Emax [24]: 15%
- Emax [25]: 80%
- Activity [26]: 0.27 g
- Activity (Mus musculus [27]): Active
- Emax [28]: 86%
- Emax [29]: 10%
- Activity [10]: 0 g
- EC50 [12]: 2.411 µg/mL
- Activity (Mus musculus [30]): inactive
- Ratio EC50 [31]: 300
- Activity [32]: 2.42 g
- Activity (Mus musculus [33]): inactive
- Activity (Mus musculus [1]): Active

SMILES: N#Cc1cncc(N2CCNCC2)n1
- Activity (Mus musculus [18]): inactive
- Activity (Mus musculus [1]): inactive

From ChEMBL document CHEMBL3244102, “Piperazinylpyrazines with central serotoninmimetic activity” (J Med Chem, 1978)
